Results reported in publication PMC6827013, “Alpha-Glucosidase and Alpha-Amylase Inhibitory Activities of Novel Abietane Diterpenes from Salvia africana-lutea” (Antioxidants, 2019).
pIC50: −log10 of the molar value. Where two headings read alike, the source gives them in different places.

Key:
[1] = Oxygen radical absorbance capacity (ORAC) assay
Text: ORAC assay was done according to the previous method. ORAC values were expressed as micromoles of trolox equivalents (TE) per milligram of the test sample. Samples without a perfect curve were further diluted, and the dilution factors were used in the calculations of such samples.
(§1) The in vitro antioxidant activity of the isolated compounds of the methanolic extract of S. africana-lutea were investigated by evaluating their ferric-ion reducing antioxidant power (FRAP), trolox equivalent absorbance capacity (TEAC), and oxygen radical absorbance capacity (ORAC) activities. […] Phenolic compounds have been reported to be responsible for the antioxidant activity of numerous plant species by stabilization of radicals by donating electrons or by metal ion complexation, among other mechanisms. Nevertheless, other aspects can be considered, for example, the presence of vicinal hydroxyl groups is essential in a pronounced antioxidant activity. Abietane diterpenes are known for having strong antioxidant activity due to the presence of ortho-dihydroxyl groups/vicinal hydroxyls in the aromatic ring that serve as hydrogen and/or electron donating agents to the corresponding reactive species leading to the formation of the stable quinone derivatives. It has been shown that the phenolic group at the 11 position would be more implicated in the antioxidant activity. In general, phenolic compounds are expected to transfer electrons or donate protons to the reactive radicals because of the resonance stability of the phenoxy radical.

[2] = Trolox equivalent absorbance capacity (TEAC) assay
Protocol: The total anti-oxidant activity of the test sample was measured using previously described methods. Absorbance was read at 734 nm at 25 °C in a plate reader, and the results were expressed as μmole Trolox equivalents per […] of dry weight (μM TE/g DW) of the test samples.
as §1

[3] = Ferric-ion reducing antioxidant power (FRAP) assay; conditions: ascorbic acid equivalents; mean ± SEM, n = 3
Protocol: The FRAP assay was carried out in accordance with the method described previously. […] L-Ascorbic acid was used as a standard, and the results were expressed as µmole ascorbic acid equivalents per […] of dry weight (μM AAE/g DW) of the test samples.
The in vitro antioxidant activity of the isolated compounds of the methanolic extract of S. africana-lutea were investigated by evaluating their ferric-ion reducing antioxidant power (FRAP), trolox equivalent absorbance capacity (TEAC), and oxygen radical absorbance capacity (ORAC) activities. […] Nevertheless, other aspects can be considered, for example, the presence of vicinal hydroxyl groups is essential in a pronounced antioxidant activity. […] It has been shown that the phenolic group at the 11 position would be more implicated in the antioxidant activity. In general, phenolic compounds are expected to transfer electrons or donate protons to the reactive radicals because of the resonance stability of the phenoxy radical.

[4] = target: α-glucosidase (Saccharomyces cerevisiae); assay: Alpha-glucosidase inhibitory activity (p-NPG substrate, absorbance 405 nm); assay type: biochemical; conditions: mean ± SEM, n = 3; NA = not active at the test concentrations
Protocol: Alpha-glucosidase inhibitory activity of the isolated compounds was carried out according to the standard method, with a slight modification. […] Next, 20 μL of p-NPG (5 mM) was added as a substrate and incubated further at 37 °C for 20 min. The reaction was stopped by adding 50 μL of sodium carbonate Na2CO3 (0.1 M). […] Each experiment was performed in triplicates. […] Inhibitory activity (%) = (1 − A/B) ×100(1) where A is the absorbance in the presence of the test substance and B is the absorbance of the control.

[5] = target: T1, α-amylase (procaine pancreas) (Sus scrofa, UniProt P00690); assay: Alpha-amylase inhibitory activity (starch substrate, DNS, absorbance 540 nm); assay type: biochemical; conditions: mean ± SEM, n = 3; NA = not active at the test concentrations
T1 construct: α-amylase (procaine pancreas); purchased Sigma-Aldrich, Cape town, South Africa; host or cells: pancreas
T1 sequence (P00690 16-511): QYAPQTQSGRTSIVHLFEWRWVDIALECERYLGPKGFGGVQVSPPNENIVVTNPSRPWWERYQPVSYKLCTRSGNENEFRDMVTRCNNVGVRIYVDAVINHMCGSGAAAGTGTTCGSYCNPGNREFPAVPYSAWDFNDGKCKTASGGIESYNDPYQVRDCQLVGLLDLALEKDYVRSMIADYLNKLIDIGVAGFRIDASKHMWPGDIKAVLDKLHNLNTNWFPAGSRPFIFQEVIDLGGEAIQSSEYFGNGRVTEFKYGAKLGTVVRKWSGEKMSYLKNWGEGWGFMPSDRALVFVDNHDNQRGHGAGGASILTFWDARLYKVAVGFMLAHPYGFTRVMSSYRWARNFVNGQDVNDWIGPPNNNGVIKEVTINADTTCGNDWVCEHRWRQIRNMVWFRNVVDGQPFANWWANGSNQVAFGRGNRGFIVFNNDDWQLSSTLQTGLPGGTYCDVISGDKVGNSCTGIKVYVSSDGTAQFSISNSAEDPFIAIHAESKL
Protocol: The alpha-amylase inhibitory activity of the extract and fractions was carried out according to the standard method, with a slight modification [24]. In a 96-well plate, the reaction mixture containing 50 μL of phosphate buffer (100 mM, pH = 6.8), 10 μL alpha amylase (2 U/mL), and 20 μL of varying concentrations of isolated compounds was pre-incubated at 37 °C for 20 min. Next, 20 μL of 1% soluble starch (100 mM phosphate buffer pH 6.8) was added as a substrate and incubated further at 37 °C for 30 min. A volume of 100 μL of the color reagent (DNS) was added and then boiled for 10 min. The absorbance of the resulting mixture was measured at 540 nm using a Multiplate Reader (Multiskan thermo scientific, version 1.00.40). […] Each experiment was performed in triplicates. The results were expressed as the percentage inhibition, which was calculated using Formula (2). Inhibitory activity (%) = (1 − A/B) ×100(2) where A is the absorbance in the presence of the test substance and B is the absorbance of the control.

[6] = Trolox equivalents, mean ± SEM, n = 3, NA = not active at the test concentrations

Row | SMILES | ORAC [1] | ORAC [1, 6] | TEAC [2, 6] | FRAP [3] | TEAC [2] | Alpha-Glucosidase IC50 [4] | pIC50 [5]
1 | COc1c(C(C)C)cc2c(c1O)[C@@]1(C(=O)O)CCC[C@](C)(COC(C)=O)C1CC2 (stereo partly shown) [Compound 1, 19-acetoxy-12-methoxycarnosic acid] | 2588.2 ± 10.1 µM TE/g | 2588.2 ± 10.1 µmole TE/g | 694.0 ±1.6 µmole TE/g | 1217.4 ± 2.9 µM AAE/g | – | – | –
2 | COC1c2cc(C(C)C)c(O)c(O)c2C23CCC(OC(C)=O)C(C)(C)C2C1OC3=O (stereo not drawn) [Compound 2, 3β-acetoxy-7α-methoxyrosmanol] | – | 2233.9 ± 8.0 µmole TE/g | 635.7 ± 0.8 µmole TE/g | 2200.9 ± 14.2 µM AAE/g | – | – | –
3 | COC1c2cc(C(C)C)c(O)c(O)c2C23CCCC(C)(COC(C)=O)C2C1OC3=O (stereo not drawn) [Compound 3, 19-acetoxy-7α-methoxyrosmanol] | – | 735.4 ± 2.0 µmole TE/g | 124.4 ± 0.6 µmole TE/g | 1440.4 ± 9.1 µM AAE/g | – | – | –
4 | COc1c(C(C)C)cc2c(c1O)C13CCCC(C)(COC(C)=O)C1CC2OC3=O (stereo not shown) [Compound 4, 19-acetoxy-12-methoxy carnosol] | – | 559.7 ± 15.2 µmole TE/g | 440.1 ± 1.5 µmole TE/g | 1257.0 ± 6.7 µM AAE/g | – | – | –
5 | CC(C)c1cc2c(c(O)c1O)[C@]13CCC[C@](C)(C(O)OC1=O)C3CC2 (stereo partly shown) [Compound 5, clinopodiolide A] | – | 2357.2 ± 0.1 µmole TE/g | 862.2 ± 1.4 µmole TE/g | 2262.9 ± 11.0 µM AAE/g | 862.2 ± 1.4 µM TE/g | – | –
6 | COc1c(C(C)C)cc2c(c1O)[C@]13CCC[C@](C)(C(O)OC1=O)C3CC2 (stereo partly shown) [Compound 6, clinopodiolide B] | – | 1502.5 ± 21.2 µmole TE/g | 724.9 ± 1.3 µmole TE/g | 1480.0 ± 3.9 µM AAE/g | 705.5 ± 2.0 µM TE/g | 81.7 ± 2.1 µg/mL | –
7 | CC1(C)CC[C@]2(C(=O)O)CC[C@]3(C)C(=CC[C@@H]4[C@@]5(C)CC[C@H](O)C(C)(C)[C@@H]5CC[C@]43C)[C@@H]2C1 [Compound 7, oleanolic acid] | – | – | – | 347.8 ± 3.7 µM AAE/g | – | – | –
8 | CC1CCC23CCC4(C)C5(C)CCC6C(C)(C)C(O)CCC6(C)C5C=CC4(OC2=O)C3C1C (stereo not shown) [Compound 9, 11,12-dehydroursolic acid lactone] | – | – | – | 283.4 ± 3.9 µM AAE/g | – | 85.8 ± 2.3 µg/mL | –
9 | CC1(C)CC[C@]2(C)CC[C@]3(C)C(=CC[C@@H]4[C@@]5(C)CC[C@H](O)C(C)(C)[C@@H]5CC[C@]43C)[C@@H]2C1 [Compound 10, β-amyrin] | – | – | – | 412.2 ± 13.0 µM AAE/g | – | 17.1 ± 1.0 µg/mL | 3.75
10 | O=C(O[C@@H]1Cc2c(O)cc(O)cc2O[C@@H]1c1cc(O)c(O)c(O)c1)c1cc(O)c(O)c(O)c1 [EGCG, Epigallocatechingallate, reference compound] | – | 3976.8 ± 3.8 µmole TE/g | 4146.4 ± 19.8 µmole TE/g | 7525.0 ± 4.9 µM AAE/g | – | – | –
